Experimental data from PubChem BioAssay (NCI).
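Test compounds were applied to cells in 96-well plates for 48 hours at 5 doses. GI50 marks 50% less growth. At the TGI there is no net growth.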

How the values were obtained:
Assay in all cases: NCI tumour cell line growth inhibition, 48 h
HCT-116 colon = tested on: HCT-116 colon
NCI/ADR-RES ovarian = tested on: NCI/ADR-RES ovarian
MOLT-4 leukemia = tested on: MOLT-4 leukemia
HS 578T breast = tested on: HS 578T breast
PC-3 prostate = tested on: PC-3 prostate
CCRF-CEM leukemia = tested on: CCRF-CEM leukemia
A498 renal = tested on: A498 renal
ACHN renal = tested on: ACHN renal
LOX IMVI melanoma = tested on: LOX IMVI melanoma
UACC-62 melanoma = tested on: UACC-62 melanoma

SMILES | GI50 (HCT-116 colon) [µM] | TGI (HCT-116 colon) [µM] | GI50 (NCI/ADR-RES ovarian) [µM] | TGI (NCI/ADR-RES ovarian) [µM] | GI50 (MOLT-4 leukemia) [µM] | TGI (MOLT-4 leukemia) [µM] | GI50 (HS 578T breast) [µM] | TGI (HS 578T breast) [µM] | GI50 (PC-3 prostate) [µM] | TGI (PC-3 prostate) [µM] | GI50 (CCRF-CEM leukemia) [µM] | TGI (CCRF-CEM leukemia) [µM] | GI50 (A498 renal) [µM] | TGI (A498 renal) [µM] | GI50 (ACHN renal) [µM] | TGI (ACHN renal) [µM] | GI50 (LOX IMVI melanoma) [µM] | TGI (LOX IMVI melanoma) [µM] | GI50 (UACC-62 melanoma) [µM] | TGI (UACC-62 melanoma) [µM]
COc1ccc(/C=C/C(=O)c2ccc(Nc3ccnc4cc(Cl)ccc34)cc2)cc1 | 0.412 | > 100 | > 100 | > 100 | 4.35 | > 48.4 | > 100 | > 100 | > 100 | > 100 | 5.64 | > 100 | > 52.3 | > 100 | > 100 | > 100 | > 100 | > 100 | 62.6 | > 100
CC[C@]12CCCN3CC[C@]4(C(=C(C(=O)OC)C1)Nc1ccccc14)[C@@H]32 | 14.6 | 33 | 14.3 | 33.4 | 18.8 | 43.7 | 17.3 | 76.1 | 20.5 | 61.5 | 21.4 | 70 | 16.1 | 32.4 | 15.3 | 28.6 | 14.3 | 27.5 | 11.4 | 31
O=[N+]([O-])c1ccc(-c2cn(-c3ccc(Cl)cc3)cn2)cc1 |  | > 100 |  | > 100 |  | > 100 |  | > 100 |  | > 100 |  | > 100 |  | > 100 |  | > 100 |  | > 100 |  | > 100
COc1cc(NC(N)=NCCC(C)(C)c2ccc(C(F)(F)F)cc2)ncc1C#N | 1.51 | 2.9 | 1.8 | 3.29 | 1.84 | 5.25 | 2.14 | 4.55 | 1.55 | 3.17 | 2.06 | 4.93 | 1.88 | 3.69 | 1.65 | 3.01 | 1.58 | 2.92 | 1.71 | 3.1
